According to ChEMBL document CHEMBL3352542, “Synthesis, biological evaluation and molecular modeling study of 2-(1,3,4-thiadiazolyl-thio and 4-methyl-thiazolyl-thio)-quinazolin-4-ones as a new class of DHFR inhibitors” (Bioorg Med Chem Lett, 2014):
Active and inactive are the calls of the source.

Legend:
SNB-19 = assay: Growth inhibition of human SNB19 cells at 10 uM after 48 hrs; format: functional
Hs-578T = assay: Growth inhibition of human Hs 578T cells at 10 uM after 48 hrs; format: functional
HT-29 = assay: Growth inhibition of human HT-29 cells at 10 uM after 48 hrs; format: functional
ACHN = assay: Growth inhibition of human ACHN cells at 10 uM after 48 hrs; format: functional
SF-268 = assay: Growth inhibition of human SF268 cells at 10 uM after 48 hrs; format: functional
NCI/ADR-RES = assay: Growth inhibition of human NCI-ADR-RES cells at 10 uM after 48 hrs; format: functional
LOX IMVI = assay: Growth inhibition of human LOXIMVI cells at 10 uM after 48 hrs; format: functional
K562 = assay: Growth inhibition of human K562 cells at 10 uM after 48 hrs; format: functional
Escherichia coli = assay: Antimicrobial activity against Escherichia coli assessed as inhibition zone at 200 ug/disk after 24 hrs by disc-diffusion method; format: functional; conditions: read-out: IZ
Staphylococcus aureus = assay: Antimicrobial activity against Staphylococcus aureus assessed as inhibition zone at 200 ug/disk after 24 hrs by disc-diffusion method; format: functional; conditions: read-out: IZ
RPMI-8226 = assay: Growth inhibition of human RPMI8226 cells at 10 uM after 48 hrs; format: functional
SK-MEL-5 = assay: Growth inhibition of human SK-MEL-5 cells at 10 uM after 48 hrs; format: functional
MCF7 = assay: Growth inhibition of human MCF7 cells at 10 uM after 48 hrs; format: functional; conditions: for inhibition of growth at 10 µM: MCF7, 48 h, read-out: GI
U-251 = assay: Growth inhibition of human U251 cells at 10 uM after 48 hrs; format: functional
PC-3 = assay: Growth inhibition of human PC3 cells at 10 uM after 48 hrs; format: functional
MOLT-4 = assay: Growth inhibition of human MOLT4 cells at 10 uM after 48 hrs; format: functional
SW-620 = assay: Growth inhibition of human SW620 cells at 10 uM after 48 hrs; format: functional
Candida albicans = assay: Antimicrobial activity against Candida albicans assessed as inhibition zone at 200 ug/disk after 24 hrs by disc-diffusion method; format: functional; conditions: read-out: IZ
OVCAR-8 = assay: Growth inhibition of human OVCAR8 cells at 10 uM after 48 hrs; format: functional
Malme-3M = assay: Growth inhibition of human MALME-3M cells at 10 uM after 48 hrs; format: functional
HCC 2998 = assay: Growth inhibition of human HCC2998 cells at 10 uM after 48 hrs; format: functional
T47D = assay: Growth inhibition of human T47D cells at 10 uM after 48 hrs; format: functional
HCT-116 = assay: Growth inhibition of human HCT116 cells at 10 uM after 48 hrs; format: functional
MDA-MB-468 = assay: Growth inhibition of human MDA-MB-468 cells at 10 uM after 48 hrs; format: functional
RXF 393 = assay: Growth inhibition of human RXF393 cells at 10 uM after 48 hrs; format: functional
CCRF-CEM = assay: Growth inhibition of human CCRF-CEM cells at 10 uM after 48 hrs; format: functional
NCI-H23 = assay: Growth inhibition of human NCI-H23 cells at 10 uM after 48 hrs; format: functional
BT-549 = assay: Growth inhibition of human BT549 cells at 10 uM after 48 hrs; format: functional
CAKI-1 = assay: Growth inhibition of human CAKI-1 cells at 10 uM after 48 hrs; format: functional
COLO 205 = assay: Growth inhibition of human COLO205 cells at 10 uM after 48 hrs; format: functional
UO-31 = assay: (§1) Growth inhibition of human UO31 cells at 10 uM after 48 hrs; format: functional
MDA-MB-435 = assay: Growth inhibition of human MDA-MB-435 cells at 10 uM after 48 hrs; format: functional
A549 = assay: Growth inhibition of human A549 cells at 10 uM after 48 hrs; format: functional
Bacillus subtilis = assay: Antimicrobial activity against Bacillus subtilis assessed as inhibition zone at 200 ug/disk after 24 hrs by disc-diffusion method; format: functional; conditions: read-out: IZ
SN12C = assay: Growth inhibition of human SN12C cells at 10 uM after 48 hrs; format: functional
SR = assay: Growth inhibition of human SR cells at 10 uM after 48 hrs; format: functional
KM12 = assay: Growth inhibition of human KM12 cells at 10 uM after 48 hrs; format: functional
SF-539 = assay: Growth inhibition of human SF539 cells at 10 uM after 48 hrs; format: functional
OVCAR-4 = assay: Growth inhibition of human OVCAR4 cells at 10 uM after 48 hrs; format: functional
UACC-257 = assay: Growth inhibition of human UACC257 cells at 10 uM after 48 hrs; format: functional
HOP-92 = assay: Growth inhibition of human HOP92 cells at 10 uM after 48 hrs; format: functional
NCI-H226 = assay: Growth inhibition of human NCI-H226 cells at 10 uM after 48 hrs; format: functional
MDA-MB-231 = assay: Growth inhibition of human MDA-MB-231 cells at 10 uM after 48 hrs; format: functional
786-0 = assay: Growth inhibition of human 786-0 cells at 10 uM after 48 hrs; format: functional
SF-295 = assay: Growth inhibition of human SF295 cells at 10 uM after 48 hrs; format: functional
HL-60(TB) = assay: Growth inhibition of human HL-60(TB) cells at 10 uM after 48 hrs; format: functional
A498 = assay: Growth inhibition of human A498 cells at 10 uM after 48 hrs; format: functional
OVCAR-5 = assay: Growth inhibition of human OVCAR5 cells at 10 uM after 48 hrs; format: functional
Dihydrofolate reductase = molecular target: T1, Dihydrofolate reductase (Bos taurus, UniProt P00376); assay: Inhibition of bovine liver DHFR
T1 sequence (P00376 whole entry): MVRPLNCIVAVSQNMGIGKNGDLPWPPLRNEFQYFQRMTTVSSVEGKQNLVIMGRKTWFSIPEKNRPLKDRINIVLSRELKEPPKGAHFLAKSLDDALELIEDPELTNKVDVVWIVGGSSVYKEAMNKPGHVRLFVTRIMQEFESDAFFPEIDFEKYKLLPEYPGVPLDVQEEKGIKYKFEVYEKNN

OVCAR-3 = assay: Growth inhibition of human OVCAR3 cells at 10 uM after 48 hrs; format: functional
UACC-62 = assay: Growth inhibition of human UACC62 cells at 10 uM after 48 hrs; format: functional
NCI-H522 = assay: Growth inhibition of human NCI-H522 cells at 10 uM after 48 hrs; format: functional
HCT-15 = assay: Growth inhibition of human HCT15 cells at 10 uM after 48 hrs; format: functional
TK-10 = assay: Growth inhibition of human TK10 cells at 10 uM after 48 hrs; format: functional
SNB-75 = assay: Growth inhibition of human SNB75 cells at 10 uM after 48 hrs; format: functional
Pseudomonas aeruginosa = assay: Antimicrobial activity against Pseudomonas aeruginosa assessed as inhibition zone at 200 ug/disk after 24 hrs by disc-diffusion method; format: functional; conditions: read-out: IZ
M14 = assay: Growth inhibition of human M14 cells at 10 uM after 48 hrs; format: functional
NCI-H460 = assay: Growth inhibition of human NCI-H460 cells at 10 uM after 48 hrs; format: functional
[1] = as §1; format: functional; conditions: UO-31, 48 h, read-out: GI

COc1cc2nc(Sc3sc(N)nc3C)n(-c3ccc(Cl)cc3)c(=O)c2cc1OC
2 µM: IC50 (Dihydrofolate reductase)
8 mm: zone of inhibition at 200 µg/disc (Escherichia coli) | zone of inhibition at 200 µg/disc (Candida albicans) | zone of inhibition at 200 µg/disc (Pseudomonas aeruginosa)
14 mm: zone of inhibition at 200 µg/disc (Bacillus subtilis)
inactive: growth inhibition (GI) (SNB-19) | growth inhibition (GI) (Hs-578T) | growth inhibition (GI) (HT-29) | growth inhibition (GI) (ACHN) | growth inhibition (GI) (SF-268) | growth inhibition (GI) (NCI/ADR-RES) | growth inhibition (GI) (LOX IMVI) | growth inhibition (GI) (K562) | growth inhibition (GI) (RPMI-8226) | growth inhibition (GI) (SK-MEL-5) | growth inhibition (GI) (MCF7) | growth inhibition (GI) (U-251) | growth inhibition (GI) (PC-3) | growth inhibition (GI) (MOLT-4) | growth inhibition (GI) (SW-620) | growth inhibition (GI) (OVCAR-8) | growth inhibition (GI) (Malme-3M) | growth inhibition (GI) (HCC 2998) | growth inhibition (GI) (T47D) | growth inhibition (GI) (HCT-116) | growth inhibition (GI) (MDA-MB-468) | growth inhibition (GI) (RXF 393) | growth inhibition (GI) (CCRF-CEM) | growth inhibition (GI) (NCI-H23) | growth inhibition (GI) (BT-549) | growth inhibition (GI) (CAKI-1) | growth inhibition (GI) (COLO 205) | growth inhibition (GI) (UO-31) | growth inhibition (GI) (MDA-MB-435) | growth inhibition (GI) (A549) | growth inhibition (GI) (SN12C) | growth inhibition (GI) (SR) | growth inhibition (GI) (KM12) | growth inhibition (GI) (SF-539) | growth inhibition (GI) (OVCAR-4) | growth inhibition (GI) (UACC-257) | growth inhibition (GI) (HOP-92) | growth inhibition (GI) (NCI-H226) | growth inhibition (GI) (MDA-MB-231) | growth inhibition (GI) (786-0) | growth inhibition (GI) (SF-295) | growth inhibition (GI) (HL-60(TB)) | growth inhibition (GI) (A498) | growth inhibition (GI) (OVCAR-5) | growth inhibition (GI) (OVCAR-3) | growth inhibition (GI) (UACC-62) | growth inhibition (GI) (NCI-H522) | growth inhibition (GI) (HCT-15) | growth inhibition (GI) (TK-10) | growth inhibition (GI) (SNB-75) | growth inhibition (GI) (M14) | growth inhibition (GI) (NCI-H460)
18 mm: zone of inhibition at 200 µg/disc (Staphylococcus aureus)

COc1cc2nc(Sc3sc(N)nc3C)n(-c3ccccc3)c(=O)c2cc1OC
32.3%: inhibition of growth at 10 µM [1]
25.6%: inhibition of growth at 10 µM (NCI-H522; NCI-H522, 48 h, read-out: GI)
7 µM: IC50 (Dihydrofolate reductase)
21.7%: inhibition of growth at 10 µM (MCF7)
8 mm: zone of inhibition at 200 µg/disc (Escherichia coli) | zone of inhibition at 200 µg/disc (Staphylococcus aureus) | zone of inhibition at 200 µg/disc (Candida albicans) | zone of inhibition at 200 µg/disc (Bacillus subtilis) | zone of inhibition at 200 µg/disc (Pseudomonas aeruginosa)
15%: inhibition of growth at 10 µM (SR; read-out: GI)

Cc1nc(N)sc1Sc1nc2ccc(Cl)cc2c(=O)n1-c1ccccc1
8 mm: zone of inhibition at 200 µg/disc (Escherichia coli) | zone of inhibition at 200 µg/disc (Staphylococcus aureus) | zone of inhibition at 200 µg/disc (Candida albicans) | zone of inhibition at 200 µg/disc (Bacillus subtilis) | zone of inhibition at 200 µg/disc (Pseudomonas aeruginosa)
5 µM: IC50 (Dihydrofolate reductase)
32.6%: inhibition of growth at 10 µM [1]
18%: inhibition of growth at 10 µM (MCF7)
14.3%: inhibition of growth at 10 µM (T47D; read-out: GI)
